Results on 1 substance are retold here after patent publication US10716778B2, “Use of compounds that are able to increase the serum IGF-1 level for the preparation of a therapeutical composition for treatment of various disease states associated with a reduced IGF-1 serum level in humans and animals” (VEIJLEN N.V., priority 2003, dated 2020).

Where “and” joins values, the source holds several entries; their conditions need not be identical. Identical values can stand only once.

One experiment concerns poor-growing piglets. The experiment can be described thus: Weight gain and appearance of poor-growing piglets treated with IAA (Example 7). The class given is in vivo, piglets (Dutch Landrace). An excerpt: The trial was done in a well-managed farm with 1000 sows of the Dutch Landrace. Although the farm is well run, the technical performance is not optimal. There were latent problems with mortality and with growth rates of the piglets. There are too many poor-growing piglets, without fully understanding the technical or veterinary reason. There is no clear pathology to be seen on the farm.
The farmer selected the poor-growing piglets for this weaning period. The piglets were weaned for two days at the start of the trial. There were three groups: the normal well-growing piglets, which served as a control group; the B group with 78 poor growers that are treated with 12.5 mg/kg/LW (Life Weight) IAA; and the X group with 52 poor growers that are not treated.
Blood samples for IGF-1 measuring were taken from each group at the beginning of the trial and at the end of the trial. Two pens (13 piglets) of the B and X groups were weighed at the beginning and at the end of the trial. The active ingredient IAA was mixed in dextrose. […] The B group received the treatment five days after the first IGF-1 measuring.

The test system of the next experiment is type 2 diabetic patients. The experiment can be described thus: Well-being of type 2 diabetic patients after treatment (Example 4). Conditions: type 2 diabetes patients. The format is in vivo, human. The source says:
Five male type 2 diabetic patients took part in the study. They were all very difficult to regulate. When the study started, the average HbA1c was to be approximately 9.0%. The patients had no other clinical problems. In addition, the IgF-BP3/IgF-1 ratio had to be over 10. The age of the subjects were between 45 years and 75 years with an average of 58. The period of the investigation was 6 months. At the start of the study, after 2 month, 4 months and at the end at 6 months, blood was taken. The following parameters were checked: IGF-1 and IGF-PB-3. Also, at the start, safety parameters (liver tests, hematology) were determined. Every 8 weeks, HbA1c was determined.

The test system of the next experiment is IGF-1. The experiment can be described thus: IGF-1 concentration in problem piglets (group P) with history of PRRSV treated with IAA (Example 9). The format is in vivo, Belgian Land Race piglets. The following applies: for IGF-1: group P piglets, acetic acid. As for the experimental part:
(§1) The piglets were weaned at four weeks and relocated, twelve piglets per pen. IGF-1 levels from three different groups were tested at the age of five weeks.
(§2) These are the pigs with the big problems. They are looking poor, have a low weight, bad color and some of them have Staphylococcus infections. It was the firm belief of the farmer and the veterinarian that these piglets would not reach the end of the fattening cycle. Blood samples were taken at random from five of the twelve piglets.
(§3) After seeing the low IGF-1 levels in group P, it was decided to give them the same treatment as in humans with CFS. The average weight of the piglets would have been around seven kilos at five weeks of age. They were treated with 125 mg of the composition comprising 5 mg IAA and 120 mg NaCl and WPC 70 for ten days. The product was fed in a trough, mixed in liquid feed. All the piglets ate from the same trough.
After ten days of treatment, random blood samples were taken from the different groups. A code was added for the size of the animals (K=small; N=normal; Z=heavy).
At random, IGF-1 concentrations of five piglets of this group were measured.
Three weeks later, blood samples were again taken, but only from the problem group.

The test system of a further experiment is IGF-BP3. The experiment can be described thus: Plasma IGF-BP3 level in eight CFS patients treated with the composition (Example 1). The class given is in vivo, human. As for the experimental part: Eight patients suffering from severe chronic fatigue syndrome (CFS) were studied over a 5- to 7-month period. In this period, they were treated with a therapeutical composition of the disclosure in the form of a food supplement, which comprised IAA as the active ingredient. All subjects were unable to do their job or to perform very light physical exercise.
Before entering the study, the subjects underwent a careful medical examination to exclude any other disease. Blood was assayed for insulin-like growth factor 1 (IGF-1) and its major binding protein IGF-BP3 was sampled at 0, 1, 3 and 5 to 7 months of treatment because the total amount of IGF-1 in serum minus the amount of IGF-BP3 is the amount of free IGF-1. Free IGF-1 is the active serum fraction. Also at 0, 1, 3 and 5 to 7 months, job participation and physical activities were registered and calculated as percentage of normal, before disease pattern.
Eight women varying in age from 25 to 53 years having severe complaints of fatigue that made it impossible to function normally, both at work and in free time. All reported an excessive need for sleep, which was never refreshing even though it was prolonged (more than 12 hours). After excluding all other diseases and infections, they were all diagnosed for CFS.
Blood samples of 20 ml were taken and liver and kidney functions, the red and white hemogram, IGF-1 and IGF-BP3 determined. The patients took 1000 mg/day (corresponding to 40 mg IAA and 960 mg salt and WPC 70) of the composition of the disclosure for 4 weeks. After this, the dosage was reduced by 250 mg (corresponding to 10 mg IAA) every 2 weeks to 750 mg/day, 500 mg/day 250 mg/day, respectively. […]
At the start of the study and at each check-up point, the work participation and physical activity pattern were scored on a scale from 1 to 10 and plotted as the percentage of the patient's normal activities. […] IGF-BP3 was determined by means of an immunoassay (DSL-5600 ACTIVE™, DSL Deutschland GmbH, Germany) having an intra-assay variance of 4.4% and an inter-assay variance of 6.6%. […]

In experiment [1] the test system is piglets that had a history of PRRSV. The experiment is described as follows: Health condition of problem piglets (group P) with history of PRRSV treated with IAA (Example 9). The format is in vivo, Belgian Land Race piglets. The following applies: after ten days of treatment. On the procedure:
as §1, §2, §3

indole acetic acid [IAA]: the “appearance of piglets in group B versus group X” value with poor-growing piglets (after one week) is “looking better”. The “weight of poor-growing animals” value in the experiment on poor-growing piglets (animal experiments, summary) is reported as “increased to normal levels”. Besides, the “average extra weight gain of treated group over non-treated” value with poor-growing piglets (pens that were weighed, period of 21 days) is around 0.5 kg. Besides, the “av. Weight gain” value in the experiment with poor-growing piglets (treated pens of group B, 21 days, acetic acid) is 7.02 kg and 6.08 kg. In addition, in the experiment with poor-growing piglets (treated pens of group B, beginning of the trial, average per piglet, acetic acid), the “Weighing 1 average” value is 6.62 kg and 6.77 kg. For the same substance, the “Weighing 1 Total” value with poor-growing piglets (treated pens of group B, beginning of the trial, total per pen, acetic acid) was 86 (n = 13) kg and 88 (n = 13) kg. Further, the “Weighing 2 average” value in the experiment on poor-growing piglets (treated pens of group B, end of the trial, average per piglet, acetic acid) was 13.64 kg and 12.85 kg. The “Weighing 2 Total” value in the experiment on poor-growing piglets (treated pens of group B, end of the trial, total per pen, acetic acid) is 150 (n = 11) kg and 167 (n = 13) kg. Also, the “average extra growth of pen B 3 L(eft) over neighbors from pen X 4 L(eft)” value in the experiment on poor-growing piglets (treated vs non-treated pen) came out at 850 grams. Further, the “how the patients felt after the treatment” value in the experiment on type 2 diabetic patients is on record as “felt better”. The IGF-1 was 2.3 nmol/l and <0.5 nmol/l (2×) and 2.0 nmol/l and 1.8 nmol/l in the experiment with IGF-1 (age five weeks, before treatment (baseline), random individual piglets); 0.8 nmol/l and <0.5 nmol/l (3×) and 4.2 nmol/l in the experiment on IGF-1 (after ten days of treatment (125 mg composition = 5 mg IAA), random individual piglets); 55.6 nmol/L and 30.0 nmol/L and 23.4 nmol/L and 65.1 nmol/L and 13.7 nmol/L and 60.1 nmol/L and 36.9 nmol/L in the experiment on IGF-1 (three weeks later, treatment stopped, individual piglets). The “change of IGF-1 levels” value in the experiment on IGF-1 (group P, after ten days of treatment) is on record as “did not rise”. The “IGF-BP3 level (mean±SD)” value was 18.1 ± 3.5 nmol/L with IGF-BP3 (after 1 month of treatment), 13.4 ± 10.6 nmol/L in the experiment with IGF-BP3 (after 5 months of treatment) and 25 ± 11.5 nmol/L with IGF-BP3 (before treatment (baseline)). Also, in experiment [1], the Staphylococcus infection entry was “no piglets suffered from Staphylococcus infection anymore”. The “condition of the piglets” value in experiment [1] is recorded as “dramatically improved”. Further, the survival entry in experiment [1] was “All twelve pigs were still alive”.
